{
  "source": "the supplement of paper PMC10307832",
  "test_in_all_cases": "relative viability (nuclei count vs DMSO), 5 days (fraction); higher = more cells survive",
  "key": {"NCI-H2023": {"system": "NCI-H2023", "how_it_was_run": "(§1)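 One day after seeding in 1536-well plates, lung cancer cell lines were dosed by pin tool. Dosing was either single-drug or a fixed anchor-drug dose plus five library-drug doses (not always all listed) in √10 steps. After 5 days, nuclei were stained in one fix-and-stain step and counted on 4× images, and relative viability is the nuclei count of treated wells over that of vehicle wells, given as the median of duplicate plates.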"}, "NCI-H2085": {"system": "NCI-H2085", "how_it_was_run": "as §1"}, "NCI-H2126": {"system": "NCI-H2126", "how_it_was_run": "as §1"}, "NCI-H2347": {"system": "NCI-H2347", "how_it_was_run": "as §1"}, "NCI-H322M": {"system": "NCI-H322M", "how_it_was_run": "as §1"}, "NCI-H358": {"system": "NCI-H358", "how_it_was_run": "as §1"}, "NCI-H647": {"system": "NCI-H647", "how_it_was_run": "as §1"}, "NCI-H661": {"system": "NCI-H661", "how_it_was_run": "as §1"}, "NCI-H727": {"system": "NCI-H727", "how_it_was_run": "as §1"}, "PC-14": {"system": "PC-14", "how_it_was_run": "as §1"}, "SK-LU-1": {"system": "SK-LU-1", "how_it_was_run": "as §1"}, "SW 1573": {"system": "SW 1573", "how_it_was_run": "as §1"}},
  "data": [
    {"smiles": "COc1cc(N2CCC(C(N)=O)CC2)ccc1Nc1nc(N)c(Cl)c(Nc2ccccc2S(=O)(=O)C(C)C)n1", "note": "[HG-5-88-01] + CS(=O)(=O)N1CCN(Cc2cc3nc(-c4cccc5[nH]ncc45)nc(N4CCOCC4)c3s2)CC1 [Pictilisib] (partner 1 µM)", "values": [
      {"measurement": "relative viability", "setting": "NCI-H2023; first compound 0.4 µM", "value": 0.16},
      {"measurement": "relative viability", "setting": "NCI-H2023; first compound 1.265 µM", "value": 0.159},
      {"measurement": "relative viability", "setting": "NCI-H2023; first compound 4 µM", "value": 0.171},
      {"measurement": "relative viability", "setting": "NCI-H2085; first compound 0.04 µM", "value": 0.478},
      {"measurement": "relative viability", "setting": "NCI-H2085; first compound 0.1265 µM", "value": 0.457},
      {"measurement": "relative viability", "setting": "NCI-H2085; first compound 0.4 µM", "value": 0.525},
      {"measurement": "relative viability", "setting": "NCI-H2085; first compound 1.265 µM", "value": 0.414},
      {"measurement": "relative viability", "setting": "NCI-H2085; first compound 4 µM", "value": 0.442},
      {"measurement": "relative viability", "setting": "NCI-H2126; first compound 0.04 µM", "value": 0.419},
      {"measurement": "relative viability", "setting": "NCI-H2126; first compound 0.1265 µM", "value": 0.435},
      {"measurement": "relative viability", "setting": "NCI-H2126; first compound 0.4 µM", "value": 0.513},
      {"measurement": "relative viability", "setting": "NCI-H2126; first compound 1.265 µM", "value": 0.501},
      {"measurement": "relative viability", "setting": "NCI-H2126; first compound 4 µM", "value": 0.38},
      {"measurement": "relative viability", "setting": "NCI-H2347; first compound 0.04 µM", "value": 0.603},
      {"measurement": "relative viability", "setting": "NCI-H2347; first compound 0.1265 µM", "value": 0.645},
      {"measurement": "relative viability", "setting": "NCI-H2347; first compound 0.4 µM", "value": 0.683},
      {"measurement": "relative viability", "setting": "NCI-H2347; first compound 4 µM", "value": 0.471},
      {"measurement": "relative viability", "setting": "NCI-H322M; first compound 0.04 µM", "value": 0.461},
      {"measurement": "relative viability", "setting": "NCI-H322M; first compound 0.1265 µM", "value": 0.471},
      {"measurement": "relative viability", "setting": "NCI-H322M; first compound 0.4 µM", "value": 0.512},
      {"measurement": "relative viability", "setting": "NCI-H322M; first compound 1.265 µM", "value": 0.441},
      {"measurement": "relative viability", "setting": "NCI-H322M; first compound 4 µM", "value": 0.449},
      {"measurement": "relative viability", "setting": "NCI-H358; first compound 0.04 µM", "value": 0.292},
      {"measurement": "relative viability", "setting": "NCI-H358; first compound 0.1265 µM", "value": 0.384},
      {"measurement": "relative viability", "setting": "NCI-H358; first compound 0.4 µM", "value": 0.302},
      {"measurement": "relative viability", "setting": "NCI-H358; first compound 1.265 µM", "value": 0.225},
      {"measurement": "relative viability", "setting": "NCI-H358; first compound 4 µM", "value": 0.301},
      {"measurement": "relative viability", "setting": "NCI-H647; first compound 0.04 µM", "value": 0.342},
      {"measurement": "relative viability", "setting": "NCI-H647; first compound 0.1265 µM", "value": 0.407},
      {"measurement": "relative viability", "setting": "NCI-H647; first compound 0.4 µM", "value": 0.453},
      {"measurement": "relative viability", "setting": "NCI-H647; first compound 1.265 µM", "value": 0.371},
      {"measurement": "relative viability", "setting": "NCI-H647; first compound 4 µM", "value": 0.443},
      {"measurement": "relative viability", "setting": "NCI-H661; first compound 0.04 µM", "value": 0.43},
      {"measurement": "relative viability", "setting": "NCI-H661; first compound 0.1265 µM", "value": 0.477},
      {"measurement": "relative viability", "setting": "NCI-H661; first compound 0.4 µM", "value": 0.469},
      {"measurement": "relative viability", "setting": "NCI-H661; first compound 4 µM", "value": 0.418},
      {"measurement": "relative viability", "setting": "NCI-H727; first compound 0.04 µM", "value": 0.486},
      {"measurement": "relative viability", "setting": "NCI-H727; first compound 0.1265 µM", "value": 0.448},
      {"measurement": "relative viability", "setting": "NCI-H727; first compound 0.4 µM", "value": 0.24},
      {"measurement": "relative viability", "setting": "NCI-H727; first compound 1.265 µM", "value": 0.261},
      {"measurement": "relative viability", "setting": "NCI-H727; first compound 4 µM", "value": 0.249},
      {"measurement": "relative viability", "setting": "PC-14; first compound 0.04 µM", "value": 0.79},
      {"measurement": "relative viability", "setting": "PC-14; first compound 0.1265 µM", "value": 0.862},
      {"measurement": "relative viability", "setting": "PC-14; first compound 0.4 µM", "value": 0.658},
      {"measurement": "relative viability", "setting": "PC-14; first compound 1.265 µM", "value": 0.168},
      {"measurement": "relative viability", "setting": "PC-14; first compound 4 µM", "value": 0.108},
      {"measurement": "relative viability", "setting": "SK-LU-1; first compound 0.04 µM", "value": 0.539},
      {"measurement": "relative viability", "setting": "SK-LU-1; first compound 0.1265 µM", "value": 0.572},
      {"measurement": "relative viability", "setting": "SK-LU-1; first compound 0.4 µM", "value": 0.539},
      {"measurement": "relative viability", "setting": "SK-LU-1; first compound 1.265 µM", "value": 0.594},
      {"measurement": "relative viability", "setting": "SK-LU-1; first compound 4 µM", "value": 0.6},
      {"measurement": "relative viability", "setting": "SW 1573; first compound 0.04 µM", "value": 0.422},
      {"measurement": "relative viability", "setting": "SW 1573; first compound 0.1265 µM", "value": 0.563},
      {"measurement": "relative viability", "setting": "SW 1573; first compound 0.4 µM", "value": 0.445},
      {"measurement": "relative viability", "setting": "SW 1573; first compound 1.265 µM", "value": 0.392},
      {"measurement": "relative viability", "setting": "SW 1573; first compound 4 µM", "value": 0.489}
    ]}
  ]
}
